Where two headings read alike, the source gives them in different places. Each block holds one compound with its values, some of them ahead of it.
Assays:
[1] = system: guinea pig bronchioles constricted by carbachol; test: Bronchodilator Test Method II, in vitro perfused guinea pig lung
Description: In this method bronchodilator activity in vitro was determined by testing the effect of graded doses of the test compounds on guinea pig bronchioles constricted by carbachol, using the technique reported by Sollman and von Oettingen, Proc. Soc, Exp. Biol. Med., 25,692 (1928) as modified by Tainter, Pedden, and James, J. Pharm. Exp. Ther., 51, 371 (1934) and by Luduena, von Euler, Tullar, and Lands, Arch. intern. Pharmacol., III, 392 (1957).

[2] = system: carbachol- or histamine-induced bronchoconstriction; test: Bronchodilator Test Method I, anesthetized dog, intravenous activity; format: in vivo; conditions: Canis lupus familiaris, read-out: Bronchodilatation; for inhibition in vivo at 0.025 mg/kg: 25 mcg/kg i.v.; for inhibition in vivo at 0.1 mg/kg: 100 mcg/kg i.v.; for inhibition in vivo at 0.0005 mg/kg: 0.5 mcg/kg i.v.; for inhibition in vivo at 0.006 mg/kg: 6.0 mcg/kg i.v.; for inhibition in vivo at 0.005 mg/kg: 5 mcg/kg i.v.; for inhibition in vivo at 0.02 mg/kg: 20 mcg/kg i.v.; for inhibition in vivo at 0.08 mg/kg: 80 mcg/kg i.v.
How it was run: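 Pentobarbital-anesthetized (30 mg/kg i.v.), open-chest, artificially ventilated dogs were given i.v. carbachol (4-6 µg/kg) or histamine diphosphate (35-45 µg/kg). Test compound was given i.v. mixed with, after, or 1-10 min before the constrictor.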

heart rate = test: Cardiovascular studies: effect on the heart rate in the anesthetized dog; format: in vivo
Description: The effect of a rapid intravenous injection on the heart rate the heart rate was conducted in anesthetized dogs under normal respiration. A few open-chest dogs were also tested. Increase in heart rate was measured by using an electrocardiograph attached to the dog. Readings were taken every 0.5-1 minute for the first 10 minutes and every 2-5 minutes thereafter until recovery. In some cases, several doses and more than one compound were tested alternately in the same dog. The blood pressure effect was simultaneously recorded.

[3] = Solubility and pH of salts; conditions: water
[4] = system: carbachol- or histamine-induced bronchoconstriction; test: Bronchodilator Test Method I, anesthetized dog, intraduodenal activity; format: in vivo; conditions: Canis lupus familiaris, read-out: Bronchodilation; for inhibition in vivo at 0.005 mg/kg: 5 mcg/kg (salt) intraduodenal; for inhibition in vivo at 0.04 mg/kg: 40 mcg/kg (salt) intraduodenal; for inhibition in vivo at 0.16 mg/kg: 160 mcg/kg (salt) intraduodenal; for inhibition in vivo at 0.025 mg/kg: 25 mcg/kg (salt) intraduodenal; for inhibition in vivo at 0.05 mg/kg: 50 mcg/kg (salt) intraduodenal
How it was run: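 Pentobarbital-anesthetized (30 mg/kg i.v.) open-chest dogs of 9-18 kg, artificially ventilated; airway pressure recorded via tracheal cannula transducer. Test solution injected intraduodenally; from 5 min, i.v. carbachol (4-6 μg/kg) or histamine diphosphate (35-45 μg/kg) challenges every 30-60 min gauged degree and duration of bronchodilation.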

SMILES: Cc1cccc(C(=O)Oc2ccc(C(O)CNC(C)(C)C)cc2O)c1 (stereo not drawn) [Example 139, 3-hydroxy-4-(m-toluyloxy)-alpha-(tert-butylaminomethyl)benzyl alcohol methanesulfonate]
- ED50 ([1]; carbachol (Doryl) 1:5 million): 2.64 µg (base)
- Duration, Mean ([1]; dose 6 mcg (base)): 29.8 ± 4.4 min
- inhibition in vivo at 0.025 mg/kg ([2]; 5 min, 5 min): 81%
- inhibition in vivo at 0.1 mg/kg ([2]; 5 min, 5 min): 74%
- inhibition in vivo at 0.025 mg/kg ([2]; 0.5 h, 30 min): 22%
- inhibition in vivo at 0.1 mg/kg ([2]; 0.5 h, 30 min): 63%
- inhibition in vivo at 0.025 mg/kg ([2]; 1 h, 60 min): 24%
- inhibition in vivo at 0.1 mg/kg ([2]; 1 h, 60 min): 22%
- inhibition in vivo at 0.025 mg/kg ([2]; 2 h, 120 min): 0%
- inhibition in vivo at 0.1 mg/kg ([2]; 2 h, 120 min): 25%
- inhibition in vivo at 0.1 mg/kg ([2]; 3 h, 180 min): 9%
- inhibition in vivo at 0.1 mg/kg ([2]; 5 h, 300 min): 10%
- Mean Maximal Increase in the Heart Rate (heart rate; 5 mcg/kg (salt) i.v.): 6 Beats/Minute
- Mean Maximal Increase in the Heart Rate (heart rate; 25 mcg/kg (salt) i.v.): 28 Beats/Minute
- Mean Maximal Increase in the Heart Rate (heart rate; 50 mcg/kg (salt) i.v.): 35 Beats/Minute

- solubility [3]: ≥ 50 mg/mL
SMILES: CCCC(C)(C)C(=O)Oc1ccc(C(O)CNC(C)(C)C)cc1OC(=O)C(C)(C)CCC (stereo not drawn) [Example 8, 3,4-bis(2,2-dimethylpentanoyloxy)-alpha-(tert-butylaminomethyl)benzyl alcohol]

SMILES: COc1ccc(C(=O)Oc2cc(C(O)CNC(C)(C)C)ccc2OC(C)=O)cc1 (stereo not drawn) [Example 149, 3-(p-anisoyloxy)-4-acetoxy-alpha-(tert-butylaminomethyl)benzyl alcohol methanesulfonate]
- ED50 ([1]; Doryl conc. 1:10 million): 0.91 µg (base)
- Duration, Mean ([1]; dose 2 mcg (base), Doryl conc. 1:10 million): 13.2 ± 1.9 min
- inhibition in vivo at 0.005 mg/kg ([4]; 5 min, 5 min): 0%
- inhibition in vivo at 0.04 mg/kg ([4]; 5 min, 5 min): 78%
- inhibition in vivo at 0.16 mg/kg ([4]; 5 min, 5 min): 72%
- inhibition in vivo at 0.005 mg/kg ([4]; 0.5 h, 30 min): 7%
- inhibition in vivo at 0.04 mg/kg ([4]; 0.5 h, 30 min): 52%
- inhibition in vivo at 0.16 mg/kg ([4]; 0.5 h, 30 min): 61%
- inhibition in vivo at 0.005 mg/kg ([4]; 1 h, 60 min): 13%
- inhibition in vivo at 0.04 mg/kg ([4]; 1 h, 60 min): 44%
- inhibition in vivo at 0.16 mg/kg ([4]; 1 h, 60 min): 56%
- inhibition in vivo at 0.005 mg/kg ([4]; 2 h, 120 min): 5%
- inhibition in vivo at 0.04 mg/kg ([4]; 2 h, 120 min): 31%
- inhibition in vivo at 0.16 mg/kg ([4]; 2 h, 120 min): 11%
- inhibition in vivo at 0.005 mg/kg ([4]; 3 h, 180 min): 9%
- inhibition in vivo at 0.16 mg/kg ([4]; 3 h, 180 min): 22%
- inhibition in vivo at 0.005 mg/kg ([4]; 4 h, 240 min): 0%
- inhibition in vivo at 0.04 mg/kg ([4]; 4 h, 240 min): 35%
- inhibition in vivo at 0.16 mg/kg ([4]; 4 h, 240 min): 23%
- inhibition in vivo at 0.04 mg/kg ([4]; 5 h, 300 min): 35%
- inhibition in vivo at 0.0005 mg/kg ([2]; 5 min, 5 min): 54%
- inhibition in vivo at 0.006 mg/kg ([2]; 5 min, 5 min): 100%
- inhibition in vivo at 0.0005 mg/kg ([2]; 0.5 h, 30 min): 19%
- inhibition in vivo at 0.006 mg/kg ([2]; 0.5 h, 30 min): 32%
- inhibition in vivo at 0.0005 mg/kg ([2]; 1 h, 60 min): 19%
- inhibition in vivo at 0.006 mg/kg ([2]; 1 h, 60 min): 24%
- Mean Maximal Increase in the Heart Rate (heart rate; 0.8 mcg/kg (salt) i.v.): 19 Beats/Minute
- Mean Maximal Increase in the Heart Rate (heart rate; 6.4 mcg/kg (salt) i.v.): 47 Beats/Minute
- Mean Maximal Increase in the Heart Rate (heart rate; 32 mcg/kg (salt) i.v.): 70 Beats/Minute

SMILES: CC(C)(C)NCC(=O)c1ccc(OC(=O)C(C)(C)C)c(OC(=O)C(C)(C)C)c1.Cl [3,4-bis(pivalyloxy)phenyl tert-butylaminomethyl ketone hydrochloride]
- solubility [3]: ≥ 10 mg/mL

- solubility [3]: ≥ 50 mg/mL
SMILES: Cc1ccc(C(=O)Oc2ccc(C(O)CNC(C)(C)C)cc2O)cc1 (stereo not drawn) [Example 69, 3-hydroxy-4-(p-toluyloxy)-alpha-(tert-butylaminomethyl)benzyl alcohol methanesulfonate]

SMILES: CC(C)(C)NCC(O)c1ccc(OC(=O)C(C)(C)C)c(COC(=O)C(C)(C)C)c1 (stereo not drawn) [Example 135, 3-(pivalyloxymethyl)-4-(pivaloxy)-alpha-(tert-butylaminomethyl)benzyl alcohol methanesulfonate]
- inhibition in vivo at 0.025 mg/kg ([4]; 5 min, 5 min): 18%
- inhibition in vivo at 0.05 mg/kg ([4]; 5 min, 5 min): 31%
- inhibition in vivo at 0.05 mg/kg ([4]; 0.5 h, 30 min): 56%
- inhibition in vivo at 0.025 mg/kg ([4]; 1 h, 60 min): 56%
- inhibition in vivo at 0.05 mg/kg ([4]; 1 h, 60 min): 74%
- inhibition in vivo at 0.025 mg/kg ([4]; 2 h, 120 min): 55%
- inhibition in vivo at 0.05 mg/kg ([4]; 2 h, 120 min): 73%
- inhibition in vivo at 0.025 mg/kg ([4]; 3 h, 180 min): 45%
- inhibition in vivo at 0.05 mg/kg ([4]; 3 h, 180 min): 64%
- inhibition in vivo at 0.025 mg/kg ([4]; 4 h, 240 min): 34%
- inhibition in vivo at 0.05 mg/kg ([4]; 4 h, 240 min): 51%
- inhibition in vivo at 0.025 mg/kg ([4]; 5 h, 300 min): 27%
- inhibition in vivo at 0.05 mg/kg ([4]; 5 h, 300 min): 37%
- inhibition in vivo at 0.05 mg/kg ([4]; 6 h, after 6 hrs.): 36%
- inhibition in vivo at 0.005 mg/kg ([2]; 5 min, 5 min): 18%
- inhibition in vivo at 0.02 mg/kg ([2]; 5 min, 5 min): 30%
- inhibition in vivo at 0.08 mg/kg ([2]; 5 min, 5 min): 38%
- inhibition in vivo at 0.005 mg/kg ([2]; 0.5 h, 30 min): 32%
- inhibition in vivo at 0.02 mg/kg ([2]; 0.5 h, 30 min): 49%
- inhibition in vivo at 0.08 mg/kg ([2]; 0.5 h, 30 min): 64%
- inhibition in vivo at 0.005 mg/kg ([2]; 1 h, 60 min): 36%
- inhibition in vivo at 0.02 mg/kg ([2]; 1 h, 60 min): 50%
- inhibition in vivo at 0.08 mg/kg ([2]; 1 h, 60 min): 62%
- inhibition in vivo at 0.005 mg/kg ([2]; 2 h, 120 min): 26%
- inhibition in vivo at 0.02 mg/kg ([2]; 2 h, 120 min): 56%
- inhibition in vivo at 0.08 mg/kg ([2]; 2 h, 120 min): 66%
- inhibition in vivo at 0.02 mg/kg ([2]; 3 h, 180 min): 50%
- inhibition in vivo at 0.08 mg/kg ([2]; 3 h, 180 min): 62%
- inhibition in vivo at 0.02 mg/kg ([2]; 4 h, 240 min): 45%
- inhibition in vivo at 0.08 mg/kg ([2]; 4 h, 240 min): 56%
- inhibition in vivo at 0.02 mg/kg ([2]; 5 h, 300 min): 36%
- inhibition in vivo at 0.08 mg/kg ([2]; 5 h, 300 min): 49%
- Mean Maximal Increase in the Heart Rate (heart rate; 0.25 mcg/kg (salt) i.v.): 5 Beats/Minute
- Mean Maximal Increase in the Heart Rate (heart rate; 1 mcg/kg (salt) i.v.): 10 Beats/Minute
- Mean Maximal Increase in the Heart Rate (heart rate; 8 mcg/kg (salt) i.v.): 17 Beats/Minute

Source: patent USRE30241E, “Esters of 3-(hydroxy or hydroxymethyl)-4-hydroxyphenyl aminomethyl ketones” (Sterling Drug Inc., priority 1970, dated 1980)
